The text below walks through data of paper PMC3909264, “A Novel Acylaminoimidazole Derivative, WN1316, Alleviates Disease Progression via Suppression of Glial Inflammation in ALS Mouse Model” (PLoS ONE, 2014).

Details of data set [1]: method as in PMID 23000247. The following applies: cited from earlier work.
Data set [2] is described as follows: Pharmacokinetics of WN-compounds in mice (brain and serum concentration, HPLC). The format is in vivo, mouse (C57BL/6N). The protocol:
Wild type mice at 8 weeks (male, C57BL/6N) were used for the analysis of CPN-9, WN1303R, WN1312, WN1315 and WN1316 pharmacokinetics. CPN-9 was suspended in 0.5% carboxymethyl cellulose (CMC)-Na (carmellose sodium, Maruishi Pharmaceutical Co., Ltd.), while WN1303R, WN1312 and WN1316 were dissolved in Milli-Q purified water (MQ water) and WN1315 was dissolved in 0.25 N HCl. CPN-9 (100 mg/kg body weight) and the four WN-compounds (50 mg/kg body weight) were injected intragastrically (i.g.). After 15 min, 30 min, 1 h, 2 h, 4 h, 6 h, and 8 h, blood was collected from heart of each mouse anesthetized with 2% isoflurane by inhalation or 4% halothane in a mixture of N2O/O2 (70∶30). Mice were thereafter perfused transcardially with physiological saline containing 10% heparin under anesthesia, and the whole brain was removed. Each blood sample was centrifuged at 1,000×g for 10 min at 4°C, and the serum fraction was collected. The brain was frozen in liquid nitrogen, and was cryopreserved until use.
We mixed serum with deproteinization buffer (0.05 M H2SO4, 2.5 M K2CO3, and […]), and collected the organic layer after centrifugation at 1,500×g for 10 min. The organic layer was mixed with 0.05 M H2SO4, and then, after centrifugation at 1,500×g for 10 min, the water layer was collected. After the addition of methanol, each serum derived sample was subjected to HPLC.
Mouse whole brain was homogenized with acetonitrile and left at −80°C for 10 min. The supernatant was collected after centrifugation at 10,000×g for 10 min at 4°C and was dried under vacuum. The dried sample was re-dissolved in methanol and mixed with two volumes of 10 mM phosphate buffer (pH7.0), after which the supernatant was collected by centrifugation at 10,000×g for 10 min at 4°C and then left at −80°C for 10 min. To further remove debris, the supernatant was filtered (0.45 µm filter), centrifuged (at 10,000×g for 10 min at 4°C), filtered (0.22 µm filter) and finally centrifuged again. Each sample solution from brain was subjected to HPLC.
The concentrations of CPN-9 and WN1316 in the serum and brain samples were determined by HPLC on a CAPCELL PAK C18 column (SHISEIDO) with 50% acetonitrile (CPN-9), 40% acetonitrile (WN1316) or 45% acetonitrile (WN1303R, WN1312, and WN1315) in 10 mM phosphate buffer (pH 7.0).

Data set [3] in a line: Water solubility (stated property). The format is physicochemical.
The mark [4] stands for this setting: C57BL/6N mice, intragastric, 100 mg/kg in 0.5% CMC-Na, n = 3, mean ± SD.

Consider `Cc1cc(C)c(OCC(=O)Nc2nc(-c3ccccn3)cs2)c(C)c1` [CPN-9, N-(4-(2-pyridyl)(1,3-thiazol-2-yl))-2-(2,4,6-trimethylphenoxy) acetamide, reference compound], for which the “toxicity (in words)” value in data set [1] was “considerable toxicity”. Moreover, in data set [2] (setting [4]), the “AUC0–8: Brain” value was 1.0±1.3 µg⋅h/g and the “AUC0–8: Serum” value worked out at 5.9±0.8 µg⋅h/ml. The “BBB permeability (in words)” value in data set [2] (mouse, in vivo) is listed as “very poor blood-brain-barrier (BBB) permeability”. Besides, the “water solubility (in words)” value in data set [3] was “hardly water soluble”.
